# What was measured:
# HPPK = HPPK (Escherichia coli, UniProt P26281); experiment: Fluorometric titration binding study with HPPK; settings: room temperature; 100 mM Tris-HCl, pH 8.3; fluorescence titration, nonlinear least-squares analysis
# Procedure: Binding studies were carried out at room temperature. Protein (HPPK) and ligand stock solutions were made in 100 mM Tris-HCl, pH 8.3, and their concentrations were determined spectrophotometrically using the following extinction coefficients: 21600 M^−1 cm^−1 at 280 nm for HPPK, 7000 M^−1 cm^−1 at 366 nm for the pteridone bisubstrate inhibitors such as compound 13, and 7124 M^−1 cm^−1 at 380 nm for the tetrahydropteridine bisubstrate inhibitors such as 28. A 3-mL dilute inhibitor solution in a fluorometric cuvette was titrated with the protein stock solution. Fluorescence was measured on a Horiba Jobin Yvon FluoroMax-4 fluorometer. The excitation wavelength and slit were 364-380 and 2-3 nm, respectively, and the emission wavelength and slit were 450-482 and 2-5 nm, respectively. […] For these HPPK preparations, a control experiment, in which a 3-mL buffer solution was titrated with the protein solution, was performed. The control data was subtracted from the titration data. The corrected titration data was then analyzed by nonlinear least-squares regression using the software Origin and the equation:
# [formula] where Fobs is the observed fluorescence, εf and εb are the fluorescence coefficients of the ligand in the free and protein-bound states, respectively, Lt is the total concentration of the ligand, and Et is the total concentration of HPPK. […]
# [1] = Stability of the compounds (stated in words, no method given); assay type: physicochemical; settings: qualitative statement; no conditions given
# Chain of HPPK (P26281 whole entry): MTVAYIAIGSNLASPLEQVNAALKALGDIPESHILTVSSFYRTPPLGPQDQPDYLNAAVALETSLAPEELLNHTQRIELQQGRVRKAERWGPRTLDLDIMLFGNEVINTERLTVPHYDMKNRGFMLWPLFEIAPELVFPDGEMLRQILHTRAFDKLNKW
SMILES,Kd (HPPK) [nM],Stability of compound [1]
"CC1(C)Nc2nc(N)[nH]c(=O)c2N=C1C(=O)NCCN1CCC(SC[C@H]2O[C@@H](n3cnc4c(N)ncnc43)C(O)C2O)CC1 (stereo in doubt) [Compound 28, 2-Amino-7,7-dimethyl-4-oxo-3,4,7,8-tetrahydro-pteridine-6-carboxylic acid (2-{4-[5-(6-amino-purin-9-yl)-3,4-dihydroxy-tetrahydro-furan-2-ylmethylsulfanyl]-piperidin-1-yl}-ethyl)-amide]",330,stable
"Nc1nc2ncc(CNCCN3CCC(SC[C@H]4O[C@@H](n5cnc6c(N)ncnc65)C(O)C4O)CC3)nc2c(=O)[nH]1 (stereo in doubt) [Compound 13, 2-Amino-6-[(2-{4-[5-(6-amino-purin-9-yl)-3,4-dihydroxy-tetrahydro-furan-2-ylmethylsulfanyl]-piperidin-1-yl}-ethylamino)-methyl]-3H-pteridin-4-one]",590,stable

# From US9453019B2, “Linked purine pterin HPPK inhibitors useful as antibacterial agents” (THE UNITED STATES OF AMERICA, AS REPRESENTED BY THE …, priority 2010, dated 2016)
